Data reported in the supplement of paper PMC11208160.

Test: recombinant barcode read abundance after kanamycin selection (control-corrected) (log10(CPM+1)); higher = more efficient recombination; sequences stand for … in AGTGCAGAGAAAATCGGCCAGTTTTCTCTGCCTGCAGTCCGCATGCCGT…AGATTTATGCAGCGGACTGCCTTTCTCCCAAAGTGATAAACCGGACAGTATCATGGACCGGTTTTCCCGGTAATCCGTATTTGCAAGGTTGGTTTCACT; site = the 11-nt target
How it was run: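 A promoter, a target, a barcode and the first 104 bridge RNA bases under J23119 made up each oligo. Oligos were Gibson-cloned into a vector bearing the other 73 bp and a T7-inducible recombinase, then co-electroporated into E. coli with a donor plasmid and plated in duplicate on chloramphenicol/ampicillin LB agar (control) or chloramphenicol/ampicillin/kanamycin with 0.1 mM IPTG. Recombination efficiency is the averaged, control-corrected counts per million of recombinant-junction barcodes. Reported values are log10(CPM+1).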
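Further: IS621 recombinase and bridge RNA in Escherichia coli cells.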

Row | Sequence | recombinant barcode read abundance (log10)
1 | CTATGGACTTGGGTTCTAACCTGTTGCAC (site CTATGGACTGT) | 1.3
2 | CTATGGACTTGGGTTCTAACCTGTTGCAC (site CTATGGACTTT) | 0.0443
3 | CTATGGACTTGGGTTCTAACCTGTTGCCT (site CTATAGACTAG) | 0.398
4 | CTATGGACTTGGGTTCTAACCTGTTGCCT (site CTATCGACTAG) | 0.196
5 | CTATGGACTTGGGTTCTAACCTGTTGCCT (site CTATGGACTAG) | 0.872
6 | CTATGGACTTGGGTTCTAACCTGTTGCCT (site CTATTGACTAG) | 0.027
7 | CTATTAGCTTGGGTTCTAACCTGTTGCCG (site CTAGTAGCTCG) | 0.418
8 | CTATTAGCTTGGGTTCTAACCTGTTGCCG (site CTATTAGCTCG) | 0.725
9 | CTATTGTCTTGGGTTCTAACCTGTTGCGA (site CTATTGTCTAC) | 0.0206
10 | CTATTGTCTTGGGTTCTAACCTGTTGCGA (site CTATTGTCTCC) | 0.165
11 | CTATTGTCTTGGGTTCTAACCTGTTGCGA (site CTATTGTCTGC) | 0.0565
12 | CTATTGTCTTGGGTTCTAACCTGTTGCGA (site CTATTGTCTTC) | 2.4
13 | CTCAAAGCTTGGGTTCTAACCTGTTGCCG (site CTCAAAGCTCG) | 0.258
14 | CTCAAAGCTTGGGTTCTAACCTGTTGCCG (site TAGTCCACTGC) | 0.196
15 | CTCAAAGCTTGGGTTCTAACCTGTTGCGA (site CTCAAAGCTTC) | 1.38
16 | CTCAAAGCTTGGGTTCTAACCTGTTGCGA (site GGGGTCCCTAA) | 0.189
17 | CTCAAGGCTTGGGTTCTAACCTGTTGCGT (site CTCAAGGCTAC) | 1.6
18 | CTCAAGGCTTGGGTTCTAACCTGTTGCGT (site CTCCAGGCTCC) | 0.128
19 | CTCACACCTTGGGTTCTAACCTGTTGCCT (site ATCACACCTAG) | 0.386
20 | CTCACACCTTGGGTTCTAACCTGTTGCCT (site CTCACACCTAG) | 0.931
21 | CTCACACCTTGGGTTCTAACCTGTTGCTT (site CTCAAACCTAA) | 0.257
22 | CTCACACCTTGGGTTCTAACCTGTTGCTT (site CTCACACCTAA) | 0.328

Row | Sequence | recombinant barcode read abundance (log10)
23 | CTCACGACTTGGGTTCTAACCTGTTGCAG (site CTCACGACTCT) | 0.273
24 | CTCACGACTTGGGTTCTAACCTGTTGCAG (site GAATGAGCTAG) | 0.245
25 | CTCAGGTCTTGGGTTCTAACCTGTTGCCT (site CTCAGGTCTAG) | 1.01
26 | CTCAGGTCTTGGGTTCTAACCTGTTGCCT (site CTCAGGTCTTG) | 0.197
27 | CTCATACCTTGGGTTCTAACCTGTTGCGT (site CTAATACCTAC) | 0.151
28 | CTCATACCTTGGGTTCTAACCTGTTGCGT (site CTCATACCTAC) | 1.92
29 | CTCATAGCTTGGGTTCTAACCTGTTGCGA (site CTCATAGCTTC) | 1.06
30 | CTCATAGCTTGGGTTCTAACCTGTTGCGA (site TGAGGGACTAG) | 0.0808
31 | CTCATGTCTTGGGTTCTAACCTGTTGCTT (site CTCATGTCTAA) | 1.44
32 | CTCATGTCTTGGGTTCTAACCTGTTGCTT (site TTCATGTCTAA) | 0.222
33 | CTCATTCCTTGGGTTCTAACCTGTTGCCT (site CTCATTCCTAA) | 0.0318
34 | CTCATTCCTTGGGTTCTAACCTGTTGCCT (site CTCATTCCTAC) | 0.216
35 | CTCATTCCTTGGGTTCTAACCTGTTGCCT (site CTCATTCCTAG) | 0.129
36 | CTCATTCCTTGGGTTCTAACCTGTTGCCT (site CTCATTCCTAT) | 0.0571
37 | CTCCAAGCTTGGGTTCTAACCTGTTGCCT (site CTACAAGCTAG) | 0.105
38 | CTCCAAGCTTGGGTTCTAACCTGTTGCCT (site CTCCAAGCTAG) | 0.665
39 | CTCCAAGCTTGGGTTCTAACCTGTTGCCT (site CTGCAAGCTAG) | 0.0619
40 | CTCCAAGCTTGGGTTCTAACCTGTTGCCT (site CTTCAAGCTAG) | 0.0961
41 | CTCCAATCTTGGGTTCTAACCTGTTGCCT (site CTCCAATCTAG) | 0.666
42 | CTCCAATCTTGGGTTCTAACCTGTTGCCT (site CTCCTATCTAG) | 0.113
43 | CTCCAGCCTTGGGTTCTAACCTGTTGCGG (site CTCCAACCTCC) | 0.411
44 | CTCCAGCCTTGGGTTCTAACCTGTTGCGG (site CTCCAGCCTCC) | 1.49

Row | Sequence | recombinant barcode read abundance (log10)
45 | CTCCCAACTTGGGTTCTAACCTGTTGCCG (site CTCCCAACTCG) | 0.136
46 | CTCCCAACTTGGGTTCTAACCTGTTGCCG (site CTCCCTACTCT) | 0.356
47 | CTCCCAACTTGGGTTCTAACCTGTTGCCT (site CTCCCAACTAG) | 0.379
48 | CTCCCAACTTGGGTTCTAACCTGTTGCCT (site TTCCCTACTAG) | 0.446
49 | CTCCCATCTTGGGTTCTAACCTGTTGCGT (site CTCCCATCTAC) | 0.874
50 | CTCCCATCTTGGGTTCTAACCTGTTGCGT (site CTCCGATCTCC) | 0.165
51 | CTCCCTTCTTGGGTTCTAACCTGTTGCTT (site CTCCCTTCTAA) | 0.534
52 | CTCCCTTCTTGGGTTCTAACCTGTTGCTT (site CTTCCTTCTAG) | 0.104
53 | CTCCGAGCTTGGGTTCTAACCTGTTGCAC (site CTCCGAGCTGT) | 0.201
54 | CTCCGAGCTTGGGTTCTAACCTGTTGCAC (site GGAACGACTAC) | 0.0202
55 | CTCCGATCTTGGGTTCTAACCTGTTGCGG (site CTCCCATCTAC) | 0
56 | CTCCGATCTTGGGTTCTAACCTGTTGCGG (site CTCCGATCTCC) | 0.0434
57 | CTCCGCCCTTGGGTTCTAACCTGTTGCCT (site CTCCGCCCTAG) | 0.776
58 | CTCCGCCCTTGGGTTCTAACCTGTTGCCT (site CTCCGTCCTAC) | 0.0714
59 | CTCCGGGCTTGGGTTCTAACCTGTTGCAG (site CTCCGGGCTCT) | 1.81
60 | CTCCGGGCTTGGGTTCTAACCTGTTGCAG (site TATACACCTAC) | 0.0879
61 | CTCCGGTCTTGGGTTCTAACCTGTTGCTT (site CACGGGTCTAA) | 0.22
62 | CTCCGGTCTTGGGTTCTAACCTGTTGCTT (site CTCCGGTCTAA) | 1.77
63 | CTCCGTACTTGGGTTCTAACCTGTTGCAT (site CTCCGAACTAA) | 0.0945
64 | CTCCGTACTTGGGTTCTAACCTGTTGCAT (site CTCCGTACTAT) | 1.14
65 | CTCCGTCCTTGGGTTCTAACCTGTTGCCG (site CTCCGTCCTCG) | 1.25
66 | CTCCGTCCTTGGGTTCTAACCTGTTGCCG (site GCCCGTCCTCG) | 0.272

Row | Sequence | recombinant barcode read abundance (log10)
67 | CTCCGTCCTTGGGTTCTAACCTGTTGCCT (site CTCCGTCCTAG) | 1.5
68 | CTCCGTCCTTGGGTTCTAACCTGTTGCCT (site CTGCGTCCTAG) | 0.252
69 | CTCCGTCCTTGGGTTCTAACCTGTTGCTT (site CTCCGACCTAA) | 0.106
70 | CTCCGTCCTTGGGTTCTAACCTGTTGCTT (site CTCCGCCCTAA) | 0.111
71 | CTCCGTCCTTGGGTTCTAACCTGTTGCTT (site CTCCGGCCTAA) | 0.589
72 | CTCCGTCCTTGGGTTCTAACCTGTTGCTT (site CTCCGTCCTAA) | 0.445
73 | CTCCTATCTTGGGTTCTAACCTGTTGCCT (site CTCCAATCTAG) | 0.238
74 | CTCCTATCTTGGGTTCTAACCTGTTGCCT (site CTCCTATCTAG) | 0.848
75 | CTCGAATCTTGGGTTCTAACCTGTTGCTA (site CTCGAACCTCA) | 0.175
76 | CTCGAATCTTGGGTTCTAACCTGTTGCTA (site CTCGAATCTTA) | 1.17
77 | CTCGACCCTTGGGTTCTAACCTGTTGCCT (site CTCGACCCTAG) | 1.7
78 | CTCGACCCTTGGGTTCTAACCTGTTGCCT (site CTGGATCCTAG) | 0.0491
79 | CTCGATACTTGGGTTCTAACCTGTTGCTT (site CTCGATACTAA) | 0.684
80 | CTCGATACTTGGGTTCTAACCTGTTGCTT (site CTCGCTACTAA) | 0.096
81 | CTCGCCACTTGGGTTCTAACCTGTTGCCT (site CTCGCCACTAG) | 0.186
82 | CTCGCCACTTGGGTTCTAACCTGTTGCCT (site GAGTTGTCTCC) | 0.0691
83 | CTCGGAGCTTGGGTTCTAACCTGTTGCCG (site CTCGGAGCTCG) | 0.596
84 | CTCGGAGCTTGGGTTCTAACCTGTTGCCG (site CTCGGATCTTG) | 0.47
85 | CTCGGATCTTGGGTTCTAACCTGTTGCCA (site CTCGGAGCTCG) | 0.167
86 | CTCGGATCTTGGGTTCTAACCTGTTGCCA (site CTCGGATCTTG) | 0.0484
